Assay [1] deals with T1, HCV polymerase (NS5B) type 1a (Hepatitis C virus genotype 1a, UniProt P26664).
T1 construct: made in house; host or cells: Escherichia coli (by the 'similar method' of the 1b enzyme)
Nature of the assay: Assay of enzyme (HCV polymerase) inhibitory activity, type 1a enzyme. Type of assay: biochemical, HCV type 1a (cloned from the blood of patients). As to conditions: HCV polymerase inhibitory activity IC50, 1a, type 1a enzyme. In a few lines: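 NS5B Δ47 C-term His6 (type 1a, 1.5 μg/ml); substrate RNA 5 μg/ml; ATP/GTP/CTP 50 μM, UTP 2 μM + [5,6-3H]UTP; Tris pH 7.5, MgCl2 5 mM; 25° C, 60 min. TCA/pyrophosphate stop, GF/B filter, scintillation. IC50 vs no-compound control.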

The target of assay [2] is T2, HCV polymerase (NS5B) type 1b (Hepatitis C virus genotype 1b, UniProt P26663).
T2 construct: a region encoding NS5B (J Virol 1991 March, 65(3), 1105-13, 544 amino acids after deletion of 47 amino acids on the C-terminal); 6xHis (C); made in house; host or cells: Escherichia coli
Nature of the assay: Assay of enzyme (HCV polymerase) inhibitory activity, type 1b enzyme. Type of assay: biochemical, HCV BK strain (type 1b). As to conditions: HCV polymerase inhibitory activity IC50, 1b, type 1b enzyme. In a few lines:
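Rxn: NS5B 1b (BK, ΔC47, His6) 0.5 μg/ml; substrate RNA 5 μg/ml; ATP/GTP/CTP 50 μM, UTP 2 μM + [5,6-3H]UTP; 20 mM Tris pH 7.5, 5 mM MgCl2, 50 mM NaCl, 1 mM EDTA/DTT. 25 °C, 60 min. Stop with TCA/pyrophosphate, filter, scintillation count; IC50 vs. untreated.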

`COCCn1ncc2sc(N3CCN(S(=O)(=O)c4ccc(OC(F)(F)F)cc4)[C@@H](C(=O)NCc4ccc(OC(F)(F)F)cc4)C3)nc2c1=O` [Example 1071, (R)-4-[5-(2-methoxy-ethyl)-4-oxo-4,5-dihydro-thiazolo[4,5-d]pyridazin-2-yl]-1-(4-trifluoromethoxy-benzenesulfonyl)-piperazine-2-carboxylic acid 4-trifluoromethoxy-benzylamide]: the concentration for half-maximal inhibition (IC50) in assay [1] and in assay [2] was < 100 nM each time.
`O=C(NCc1ccc(OC(F)(F)F)cc1)[C@H]1CN(c2nc3nc(C4CCC4)ncc3s2)CCN1S(=O)(=O)c1ccc(C(F)(F)F)cc1` [Example 1072, (R)-4-(5-cyclobutyl-thiazolo[4,5-d]pyrimidin-2-yl)-1-(4-trifluoromethyl-benzenesulfonyl)-piperazine-2-carboxylic acid 4-trifluoromethoxy-benzylamide]: the half-maximal inhibitory concentration (IC50) in assay [1] and in assay [2] was < 100 nM in each case.
Turning to `O=C(NCc1ccc(OC(F)F)c(F)c1)[C@H]1CN(c2nc3nc(C4CC4)ncc3s2)CCN1S(=O)(=O)c1ccc(OC(F)(F)F)cc1` [Example 1073, (R)-4-(5-cyclopropyl-thiazolo[4,5-d]pyrimidin-2-yl)-1-(4-trifluoromethoxy-benzenesulfonyl)-piperazine-2-carboxylic acid 4-difluoromethoxy-3-fluoro-benzylamide], the IC50 in assay [1] and in assay [2] was < 100 nM each time.
As for `O=C(NCc1ccc(OC(F)F)c(F)c1)[C@H]1CN(c2nc3nc(C4CC4)ncc3s2)CCN1S(=O)(=O)c1ccc(C(F)(F)F)cc1` [Example 1074, (R)-4-(5-cyclopropyl-thiazolo[4,5-d]pyrimidin-2-yl)-1-(4-trifluoromethyl-benzenesulfonyl)-piperazine-2-carboxylic acid 4-difluoromethoxy-3-fluoro-benzylamide], the 50% inhibitory concentration (IC50) in assay [1] and in assay [2] was < 100 nM throughout.
Turning to `CC(C)(O)c1ncc2sc(N3CCN(S(=O)(=O)c4ccc(C(F)(F)F)cc4)[C@@H](C(=O)NCc4ccc(OC(F)(F)F)cc4)C3)nc2n1` [Example 1075, (R)-4-[5-(1-hydroxy-1-methyl-ethyl)-thiazolo[4,5-d]pyrimidin-2-yl]-1-(4-trifluoromethyl-benzenesulfonyl)-piperazine-2-carboxylic acid 4-trifluoromethoxy-benzylamide], the half-inhibitory concentration (IC50) in assay [1] and in assay [2] was < 100 nM throughout.
As to `COCC1(c2ncc3sc(N4CCN(S(=O)(=O)c5ccc(OC(F)(F)F)cc5)[C@@H](C(=O)NCc5ccc(OC(F)(F)F)cc5)C4)nc3n2)CC1` [Example 1076, (R)-4-[5-(1-methoxymethyl-cyclopropyl)-thiazolo[4,5-d]pyrimidin-2-yl]-1-(4-trifluoromethoxy-benzenesulfonyl)-piperazine-2-carboxylic acid 4-trifluoromethoxy-benzylamide], the IC50 in assay [1] and in assay [2] was < 100 nM each time.
Turning to `O=C(NCc1ccc(OC(F)(F)F)cc1)[C@H]1CN(c2nc3nc(C4(CO)CC4)ncc3s2)CCN1S(=O)(=O)c1ccc(OC(F)(F)F)cc1` [Example 1077, (R)-4-[5-(1-hydroxymethyl-cyclopropyl)-thiazolo[4,5-d]pyrimidin-2-yl]-1-(4-trifluoromethoxy-benzenesulfonyl)-piperazine-2-carboxylic acid 4-trifluoromethoxy-benzylamide], the IC50 in assay [1] and in assay [2] was < 100 nM in each case.
`O=C(NCc1ccc(OC(F)(F)F)cc1)[C@H]1CN(c2nc3c(=O)n(CCO)ncc3s2)CCN1S(=O)(=O)c1ccc(OC(F)(F)F)cc1` [Example 1078, (R)-4-[5-(2-hydroxy-ethyl)-4-oxo-4,5-dihydro-thiazolo[4,5-d]pyridazin-2-yl]-1-(4-trifluoromethoxy-benzenesulfonyl)-piperazine-2-carboxylic acid 4-trifluoromethoxy-benzylamide]: the IC50 in assay [1] and in assay [2] was < 100 nM in each case.
With `COC1(c2ncc3sc(N4CCN(S(=O)(=O)c5ccc(OC(F)(F)F)cc5)[C@@H](C(=O)NCc5ccc(OC(F)(F)F)cc5)C4)nc3n2)CC1` [Example 1079, (R)-4-[5-(1-methoxy-cyclopropyl)-thiazolo[4,5-d]pyrimidin-2-yl]-1-(4-trifluoromethoxy-benzenesulfonyl)-piperazine-2-carboxylic acid 4-trifluoromethoxy-benzylamide], the concentration for half-maximal inhibition (IC50) in assay [1] and in assay [2] was < 100 nM each time.
Turning to `O=C(NCc1ccc(OC(F)(F)F)cc1)[C@H]1CN(c2nc3nc(C4(O)CC4)ncc3s2)CCN1S(=O)(=O)c1ccc(OC(F)(F)F)cc1` [Example 1080, (R)-4-[5-(1-hydroxy-cyclopropyl)-thiazolo[4,5-d]pyrimidin-2-yl]-1-(4-trifluoromethoxy-benzenesulfonyl)-piperazine-2-carboxylic acid 4-trifluoromethoxy-benzylamide], the IC50 in assay [1] and in assay [2] was < 100 nM throughout.
On to `CCCc1ccc(CNC(=O)[C@H]2CN(c3nc4cc(C(=O)OC(C)(C)C)ncc4s3)CCN2S(=O)(=O)c2ccc(OC(F)(F)F)cc2)cc1` [Example 1081, 2-[(R)-3-(4-propyl-benzylcarbamoyl)-4-(4-trifluoromethoxy-benzenesulfonyl)-piperazin-1-yl]-thiazolo[5,4-c]pyridine-6-carboxylic acid tert-butyl ester], for which the half-inhibitory concentration (IC50) in assay [1] and in assay [2] was < 100 nM throughout.
On to `CCCc1ccc(CNC(=O)[C@H]2CN(c3nc4cc(C(=O)O)ncc4s3)CCN2S(=O)(=O)c2ccc(OC(F)(F)F)cc2)cc1` [Example 1082, 2-[(R)-3-(4-propyl-benzylcarbamoyl)-4-(4-trifluoromethoxy-benzenesulfonyl)-piperazin-1-yl]-thiazolo[5,4-c]pyridine-6-carboxylic acid], for which the concentration for half-maximal inhibition (IC50) in assay [1] and in assay [2] was < 100 nM throughout.
Turning to `CCCc1ccc(CNC(=O)[C@H]2CN(c3nc4c(C(=O)OCC)cncc4s3)CCN2S(=O)(=O)c2ccc(OC(F)(F)F)cc2)cc1` [Example 1083, 2-[(R)-3-(4-propyl-benzylcarbamoyl)-4-(4-trifluoromethoxy-benzenesulfonyl)-piperazin-1-yl]-thiazolo[5,4-c]pyridine-7-carboxylic acid ethyl ester], the IC50 in assay [1] and in assay [2] was < 100 nM each time.
Regarding `CCCc1ccc(CNC(=O)[C@H]2CN(c3nc4c(C(=O)O)cncc4s3)CCN2S(=O)(=O)c2ccc(OC(F)(F)F)cc2)cc1` [Example 1084, 2-[(R)-3-(4-propyl-benzylcarbamoyl)-4-(4-trifluoromethoxy-benzenesulfonyl)-piperazin-1-yl]-thiazolo[5,4-c]pyridine-7-carboxylic acid], the IC50 in assay [1] and in assay [2] was < 100 nM throughout.
With `O=C(NCc1ccc(OC(F)F)c(F)c1)[C@H]1CN(c2nc3nc(C(F)(F)F)ncc3s2)CCN1S(=O)(=O)c1ccc(C(F)(F)F)cc1` [Example 1085, (R)-1-(4-trifluoromethyl-benzenesulfonyl)-4-(5-trifluoromethyl-thiazolo[4,5-d]pyrimidin-2-yl)-piperazine-2-carboxylic acid 4-difluoromethoxy-3-fluoro-benzylamide], the IC50 in assay [1] and in assay [2] was < 100 nM throughout.

The record behind these values is patent US8017612B2, “Piperazine compound and use thereof as a HCV polymerase inhibitor” (priority 2006, dated 2011).
